Laboratory results from patent publication US20240101563A1, “NOVEL COMPOUNDS” (AC Immune SA, priority 2022, published 2024).
Where a name gives a salt, the structure may show the parent alone. Read-outs that look alike come from different tables or passages of the source.

Test system: NLRP3 inflammasome pathway
Test: NLRP3 inflammasome pathway activation assay, MSU stimulation, IL-1β HTRF
Assay type: cell-based
Conditions: Homo sapiens, 3 h, MSU 200 μg/mL for 3 h, IL-1β release, read-out: IC50 Human monocyte-like cells MSU
Experimental: The following assays were used to determine the inhibitory activity of test compounds on the NLRP3 inflammasome pathway using common stimuli Nigericin (Invivogen) or monosodium urate crystals (MSU) (Invivogen).
Human monocyte-like cells were cultured in RPMI-1640 Glutamax medium supplemented with 10% heat inactivated FBS (Fetal Bovine Serum) and 50 U/mL penicillin-streptomycin (Life Technologies).
Human monocyte-like cells were seeded at 25000 per well in a 384-well plate and were differentiated overnight into macrophages with 10 ng/mL PMA (Phorbol Myristate Acetate). The following day, medium containing 10 ng/mL LPS (Lipopolysaccharide) was added. After 3 hours of LPS priming, concentrations of test compound in the range from […] were added 30 min prior to NLRP3 inflammasome pathway stimulation with Nigericin 3.75 μM or MSU 200 μg/mL for 3 h.
For IL-1p quantification, supernatants were analyzed using HTRF kit according to the manufacturer's instructions (Cisbio 62HIL1BPEH). Briefly, in a 384-well ProxiPlate™ microplate, 8 μl of sample was mixed, with 5 μl of Anti-IL1β Cryptate antibody (40×) and Anti-IL1β XL antibody (40×). Then, incubated overnight at RT. Reading was done using an EnVision Reader (PerkinElmer).
IC50 (concentration corresponding to 50% inhibition) were determined using GraphPad Prism 9.

[1] = Table 8 (formula II′/II vs formula III)
[2] = Table 7, PMA-differentiated, LPS-primed cells

Compound	IC50 [1]	IC50 [2]
COc1nc2nc(-c3ccc(C(F)(F)F)cc3O)n(C)c2cc1CO [Example 51, 2-(6-(hydroxymethyl)-5-methoxy-1-methyl-1H-imidazo[4,5-b]pyridin-2-yl)-5-(trifluoromethyl)phenol]	–	< 100 nM
Cc1cc(Cl)cc(O)c1-c1nc2nc(N3CCN(C)CC3)cnc2n1C [Example 69, 5-chloro-3-methyl-2-(1-methyl-5-(4-methylpiperazin-1-yl)-1H-imidazo[4,5-b]pyrazin-2-yl)phenol]	–	100 to 1000 nM
Cc1cc(C(F)(F)F)cc(O)c1-c1nc2nc(OC3CCN(C)C3)ncc2n1C (racemic) [Example 55, 3-methyl-2-(7-methyl-2-((1-methylpyrrolidin-3-yl)oxy)-7H-purin-8-yl)-5-(trifluoromethyl)phenol]	–	100 to 1000 nM
Cc1cc(Cl)cc(O)c1-c1nc2nc(N3CCC4CCN(C)CC43)cnc2n1C (racemic) [Example 76, 5-chloro-3-methyl-2-[1-methyl-5-(6-methyl-3,3a,4,5,7,7a-hexahydro-2H-pyrrolo[2,3-c]pyridin-1-yl)imidazo[4,5-b]pyrazin-2-yl]phenol]	–	< 100 nM
CNc1ccc2c(n1)nc(-c1ccc(C(F)(F)F)cc1O)n2C [Example 4, 2-(1-methyl-5-(methylamino)-1H-imidazo[4,5-b]pyridin-2-yl)-5-(trifluoromethyl)phenol]	–	100 to 1000 nM
Cc1cc(C(F)(F)F)cc(O)c1-c1nc2nc(N3CC(C)(O)C3)cnc2n1C [Example 84, 1-(2-(2-hydroxy-6-methyl-4-(trifluoromethyl)phenyl)-1-methyl-1H-imidazo[4,5-b]pyrazin-5-yl)-3-methylazetidin-3-ol]	–	100 to 1000 nM
COc1nc2nc(-c3c(C)cc(C(F)(F)F)cc3O)n(C)c2nc1CO [Example 65, 2-(6-(hydroxymethyl)-5-methoxy-1-methyl-1H-imidazo[4,5-b]pyrazin-2-yl)-3-methyl-5-(trifluoromethyl)phenol]	–	< 100 nM
CN1CC[C@@H](Nc2ccc3c(n2)nc(-c2ccc(C(F)(F)F)cc2O)n3C)C1 (single isomer, unassigned) [Example 19, 2-(1-methyl-5-((1-methylpyrrolidin-3-yl)amino)-1H-imidazo[4,5-b]pyridin-2-yl)-5-(trifluoromethyl)phenol]	–	< 100 nM
Cn1c(-c2ccc(C(F)(F)F)cc2O)nc2nc(NCCO)ccc21 [Example 1, 2-(5-((2-hydroxyethyl)amino)-1-methyl-1H-imidazo[4,5-b]pyridin-2-yl)-5-(trifluoromethyl)phenol]	100 to 500 nM	100 to 1000 nM
Cn1c(-c2ccc(C(F)(F)F)cc2O)nc2nc(NCC(C)(C)O)ccc21 [Example 5, 2-(5-((2-hydroxy-2-methylpropyl)amino)-1-methyl-1H-imidazo[4,5-b]pyridin-2-yl)-5-(trifluoromethyl)phenol]	–	100 to 1000 nM
CNc1ccc2c(n1)nc(-c1c(C)cc(C(F)(F)F)cc1O)n2C [Example 3, 3-methyl-2-(1-methyl-5-(methylamino)-1H-imidazo[4,5-b]pyridin-2-yl)-5-(trifluoromethyl) phenol]	–	100 to 1000 nM
Cc1cc(Cl)cc(O)c1-c1nc2nc(C(F)(F)F)ccc2n1C [Examples 50]	–	100 to 1000 nM
Cc1cc(Cl)cc(O)c1-c1nc2nc(N3CCC(C)(O)C3)cnc2n1C (single isomer, unassigned) [Example 86A]	–	< 100 nM
CN1CCC[C@@H](Nc2nc3nc(-c4ccc(C(F)(F)F)cc4O)ccc3n2C)C1 [Example 83, (R)-2-(1-methyl-2-((1-methylpiperidin-3-yl)amino)-1H-imidazo[4,5-b]pyridin-5-yl)-5-(trifluoromethyl)phenol]	> 1500 nM	–
CN1CC[C@@H](Oc2ccc3c(n2)nc(-c2ccc(C(F)(F)F)cc2O)n3C)C1 [Example 27, (R)-2-(1-methyl-5-((1-methylpyrrolidin-3-yl)oxy)-1H-imidazo[4,5-b]pyridin-2-yl)-5-(trifluoromethyl)phenol]	–	< 100 nM

The next lines start with the values.

IC50 [1]	IC50 [2]	Compound
> 1500 nM	–	Cn1c(NCCO)nc2nc(-c3ccc(C(F)(F)F)cc3O)ccc21 [Example 82, 2-(2-((2-hydroxyethyl)amino)-1-methyl-1H-imidazo[4,5-b]pyridin-5-yl)-5-(trifluoro-methyl)phenol]
–	100 to 1000 nM	COc1ccc2c(n1)nc(-c1ccc(C(F)(F)F)cc1O)n2C(C)C [Example 35, 2-(1-isopropyl-5-methoxy-1H-imidazo[4,5-b]pyridin-2-yl)-5-(trifluoromethyl)phenol]
–	100 to 1000 nM	CC(C)n1c(-c2ccc(C(F)(F)F)cc2O)nc2nc(NC3CCN(C)C3)ccc21 (single isomer, unassigned) [Example 10A, 2-(1-isopropyl-5-((1-methylpyrrolidin-3-yl)amino)-1H-imidazo[4,5-b]pyridin-2-yl)-5-(trifluoromethyl)phenol]
–	100 to 1000 nM	CCn1c(-c2ccc(C(F)(F)F)cc2O)nc2nc(NC)ccc21 [Example 14, 2-(1-ethyl-5-(methylamino)-1H-imidazo[4,5-b]pyridin-2-yl)-5-(trifluoromethyl)phenol]
–	100 to 1000 nM	CNc1ccc2cn(-c3ccc(C(F)(F)F)cc3O)nc2n1 [Example 41, 2-[6-(methylamino)pyrazolo[3,4-b]pyridin-2-yl]-5-(trifluoromethyl)phenol]
–	100 to 1000 nM	Cc1cc(C(F)(F)F)cc(O)c1-c1nc2nc(N3CCN(C)CC3)cnc2n1C [Example 68, 3-methyl-2-(1-methyl-5-(4-methylpiperazin-1-yl)-1H-imidazo[4,5-b]pyrazin-2-yl)-5-(trifluoromethyl)phenol]
–	100 to 1000 nM	Cn1c(-c2ccc(C(F)(F)F)cc2O)nc2nc(O[C@H]3CC[C@H](O)C3)ccc21 (single isomer, unassigned) [Example 37A, trans-2-(5-((3-hydroxycyclopentyl)oxy)-1-methyl-1H-imidazo[4,5-b]pyridin-2-yl)-5-(trifluoromethyl)phenol]
–	100 to 1000 nM	OCCNc1ccc2cn(-c3ccc(C(F)(F)F)cc3O)nc2n1 [Example 48, 2-(6-((2-hydroxyethyl)amino)-2H-pyrazolo[3,4-b]pyridin-2-yl)-5-(trifluoromethyl)phenol]
–	< 100 nM	COc1cnc2c(n1)nc(-c1c(C)cc(Cl)cc1O)n2C [Example 59, 5-chloro-2-(5-methoxy-1-methyl-imidazo[4,5-b]pyrazin-2-yl)-3-methyl-phenol formate Salt]
–	100 to 1000 nM	Cn1c(-c2ccc(Cl)cc2O)nc2nc(C(F)(F)F)ccc21 [Example 49, 5-chloro-2-(1-methyl-5-(trifluoromethyl)-1H-imidazo[4,5-b]pyridin-2-yl)phenol]
–	< 100 nM	COc1nc2nc(-c3c(C)cc(Cl)cc3O)n(C)c2cc1CO [Example 70, 5-chloro-2-[6-(hydroxymethyl)-5-methoxy-1-methyl-imidazo[4,5-b]pyridin-2-yl]-3-methyl-Phenol]
–	< 100 nM	Cc1cc(C(F)(F)F)cc(O)c1-c1nc2nc(N[C@@H]3CCN(C)C3)c(F)cc2n1C [Example 46, (R)-2-(6-fluoro-1-methyl-5-((1-methylpyrrolidin-3-yl)amino)-1H-imidazo[4,5-b]pyridin-2-yl)-3-methyl-5-(trifluoromethyl)phenol]
–	> 1000 nM	Cc1cc(C(F)(F)F)cc(O)c1-c1nc2nc(NCC(C)(C)O)ccc2n1C [Example 6, 2-(5-((2-hydroxy-2-methylpropyl)amino)-1-methyl-1H-imidazo[4,5-b]pyridin-2-yl)-3-methyl-5-(trifluoromethyl)phenol]
